Tests used:
[1] = tested on: Pig primary RPE cells; test: Transepithelial resistance (TER) of RPE monolayers under oxidative stress (H2O2 and serum as source of complement); assay type: cell-based; settings: for EC50: Sus scrofa, RPE, pretreatment 1 hour prior to stressors, tested at 5 nM-1 μM, read-out: ED50 (reduction of oxidative stress-mediated TER loss); for Mean Diff., Fisher's PLSD for 100 nM effect: treatment / Mean Diff., Fisher's PLSD for nicotine effect: treatment: Significance Level 5%; for Mean Diff., Fisher's PLSD for nicotine effect: treatment: dose response profiles; for dose-response profile of TER preservation: range 5 nM-1 μM; for effect of compound on TER on its own: test compound controls lack H2O2
Method: Pig primary RPE cells grown as stable monolayers were used for this set of experiments. RPE monolayers were treated with hydrogen peroxide (H2O2) and serum as a source of complement. This treatment is known to result in loss of transepithelial resistance (TER) in RPE cells that is dependent upon reactive oxygen species and superoxide production. […] Combined treatment of two stressors present in AMD (low oxidative stress and complement activation) results in TER loss; whereas each stressor alone has no effect. This loss in TER can be eliminated by pretreatment with superoxide dismutase (SOD) mimetic (MnTBAP). […] FIG. 4 is derived from the maximal effects observed in FIG. 3. […] The higher the resistance, the less injury to the cell. Note that “HI” is “heat inactivated.” Heat inactivates complement, a necessary component to cause injury to the RPE in the presence of peroxides. Pig primary RPE cells were harvested from pigs used for practice surgeries. Cultures were performed described by Ablonczy, Z. and C. E. Crosson, VEGF modulation of retinal pigment epithelium resistance. […] Chemicals. Compounds were tested at 5 nM-1 μM concentration. Compound A-E are as noted herein.

[2] = tested on: Rat brain endothelial cell line gp8.3 cells; test: Alpha 7 ligand modulation of radiation-induced ROS generation; assay type: cell-based; settings: 10 uM ligand for 1 h prior to single dose of 10 Gy; H2DCFDA; FIG. 2
[3] = pairwise comparison versus Compound A
[4] = pairwise comparison versus Compound B
[5] = pairwise comparison versus Compound C
[6] = pairwise comparison versus Compound D

Compound | Mean Diff., Fisher's PLSD for 100 nM effect: treatment [1, 4] | Mean Diff., Fisher's PLSD for nicotine effect: treatment [1, 4] | Mean Diff., Fisher's PLSD for 100 nM effect: treatment [1, 6] | Mean Diff., Fisher's PLSD for nicotine effect: treatment [1, 6] | dose-response profile of TER preservation ([1]; FIG. 4) | other results
C(=C\[C@H]1CCNC1)/c1cncnc1 [Compound E, (R)-5-((E)-2-pyrrolidin-3-ylvinyl)pyrimidine] | 25.718 | 17.682 | 33.750 | 24.861 |  | EC50 ([1]; FIG. 4): ~0.2 µM; Mean Diff., Fisher's PLSD for 100 nM effect: treatment [1, 3]: 39.927; Mean Diff., Fisher's PLSD for nicotine effect: treatment [1, 3]: 34.222; Mean Diff., Fisher's PLSD for 100 nM effect: treatment [1, 5]: 23.652; Mean Diff., Fisher's PLSD for nicotine effect: treatment [1, 5]: 19.717
c1cncc(C2CC3CCN2CC3)c1 (stereo not drawn) [Compound D] | −8.023 | −7.179 |  |  |  | 
CN1CCCC1c1cccnc1 (stereo not drawn) [nicotine, reference compound] |  |  |  |  |  | reduction of oxidative stress-mediated loss of epithelial cell integrity (TER deterioration) ([1]; H2O2 + serum, dose response, FIG. 4): reduces transepithelial resistance (TER) deterioration in the presence of stress in a dose-dependent manner
Cc1ccc(C(=O)N[C@@H]2C3CCN(CC3)[C@H]2Cc2cccnc2)s1 [Compound B, N-((2S,3R)-2-((pyridin-3-yl)methyl)-1-azabicyclo[2.2.2]oct-3-yl)-5-methylthiophene-2-carboxamide] |  |  |  |  | plateaued at or around the ED50 level | effect of compound on TER on its own [1]: reduced TER on their own; radiation-induced increase in ROS level [2]: blocked radiation-induced increase in ROS level
O=C(O)c1ccc(/C2=C3\C=CC(=N3)/C(c3ccc(C(=O)O)cc3)=c3/cc/c4[n]3[Mn]([Cl])[n]3c2ccc3/C(c2ccc(C(=O)O)cc2)=C2/C=CC(=N2)\C=4c2ccc(C(=O)O)cc2)cc1 [MnTBAP, reference compound] |  |  |  |  |  | loss in TER caused by combined stressors ([1]; pretreatment, low oxidative stress and complement activation): eliminated
CN[C@@]1(C)[C@@H]2CC[C@@H](C2)C1(C)C [Compound A, exo-S-mecamylamine] | −14.209 | −16.538 | −6.177 | −9.359 | exhibited a dose-response profile over the entire range used | Mean Diff., Fisher's PLSD for 100 nM effect: treatment [1, 5]: −16.276; Mean Diff., Fisher's PLSD for nicotine effect: treatment [1, 5]: −14.503
O=C(N[C@@H]1C2CCN(CC2)[C@H]1Cc1cccnc1)c1cc(F)cc(F)c1 [Compound C, N-((2S,3R)-2-((3-pyridinyl)methyl)-1-azabicyclo[2.2.2]oct-3-yl)-3,5-difluorobenzamide] | 2.066 | −2.035 | 10.098 | 5.144 | plateaued at or around the ED50 level | EC50 ([1]; FIG. 4): < 0.05 µM; effect of compound on TER on its own [1]: reduced TER on their own
